# Patent US6218431A, “Substituted biphenyls” (Bayer Corporation, priority 1997, dated 2001)
# Molecular target: T1, glucagon receptor (Homo sapiens, UniProt P47871)
# T1 construct: expressed in transfected cells; host or cells: Chinese Hamster Ovary cells (CHO-HGR), membranes
# Test: glucagon receptor binding assay (125I-glucagon, CHO-HGR membranes)
# Conditions: 20 μM; reported where 20 μM did not reduce glucagon binding by 50%
# Method in brief: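 Membranes from CHO cells expressing glucagon receptor (10 ug protein) in Tris pH 7.4 buffer with EDTA, BSA and bacitracin, incubated with test compound and 125I-glucagon (9 fmol) 60 min at room temperature. Bound radioactivity counted after filtration; nonspecific binding defined with 1 μM native glucagon; 0.5% DMSO.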
# T1 sequence (P47871 26-477): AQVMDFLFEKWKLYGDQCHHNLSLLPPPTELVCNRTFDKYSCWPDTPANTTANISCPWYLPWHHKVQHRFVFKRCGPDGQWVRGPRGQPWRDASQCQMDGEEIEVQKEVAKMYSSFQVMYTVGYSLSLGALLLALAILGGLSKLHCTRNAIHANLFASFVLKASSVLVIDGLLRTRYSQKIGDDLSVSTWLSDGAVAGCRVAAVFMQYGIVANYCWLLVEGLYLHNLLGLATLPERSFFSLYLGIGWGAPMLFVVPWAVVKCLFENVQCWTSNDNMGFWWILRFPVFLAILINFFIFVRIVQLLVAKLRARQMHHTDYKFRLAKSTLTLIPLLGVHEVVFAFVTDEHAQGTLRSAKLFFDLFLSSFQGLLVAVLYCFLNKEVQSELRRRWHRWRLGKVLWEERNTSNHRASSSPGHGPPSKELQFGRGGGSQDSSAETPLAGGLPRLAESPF
row,inhibition at 20 µM [%],Structure (SMILES)
1,21.1,"CCCCCc1c(C(C)C)nc(C(C)C)c(C(O)CCCC)c1-c1ccc(F)cc1 (racemic) [Example 115, (±)-2,6-Diisopropyl-3-(1-hydroxypentyl)-4-(4-fluorophenyl)-5pentyl-pyridine]"
2,1.52,CCCC=Cc1c(C)nc(C)c(CO)c1-c1ccccc1 [Example 3]
3,14.2,CC(C)c1nc(C(C)C)c(CCCCCCCCC(=O)O)c(-c2ccc(F)cc2)c1CO [Example 91]
4,7.78,"CCCCCc1c(C(C)C)nc(C(C)C)c(CO)c1-c1ccc(Cl)cc1Cl [Example 148, 2,6-Diisopropyl-3-hydroxymethyl-4-(2,4-dichlorophenyl)-5-pentylpyridine]"
5,24.8,"CC(C)c1nc(C(C)C)c(CCCCO)c(-c2ccc(F)cc2)c1CO [Example 88, 2,6-Diisopropyl-3-hydroxymethyl-4-(4-fluorophenyl)-5-(4-hydroxy-butyl)pyridine]"

# Same assay, conditions: 125I-glucagon; 60 min at room temperature; read-out: IC50
row,IC50 [µM],Structure (SMILES)
1,13,"CC(C)c1nc(C(C)C)c(CSc2ccc([N+](=O)[O-])cc2)c(-c2ccc(F)cc2)c1CO [Example 68, 2,6-Diisopropyl-3-hydroxymethyl-4-(4-fluorophenyl)-5-[(4-nitrophenyl)-thio]methylpyridine]"
2,6.3,"C=CCOCc1nc(C(C)C)c(CO)c(-c2ccc(F)cc2)c1CCCCC [Example 203, 2-(Prop-2-enyloxy)methyl-3-pentyl-4-(4-fluorophenyl)-5-hydroxymethyl-6-isopropylpyridine]"
3,0.39,"CCCCCCc1c(C(C)C)nc(C(C)C)c(CO)c1-c1ccc(F)cc1 [Example 23, 2,6-Diisopropyl-3-hydroxymethyl-4-(4-fluorophenyl)-5-hexylpyridine]"

# More lines, now with the values behind:
row,Structure (SMILES),IC50 [µM]
1,"CCCCCc1c(C(C)C)nc(C(C)C)c(C(C)O)c1-c1ccccc1O (single isomer, unassigned) [Example 164-D1, 2,6-Diisopropyl-3-(1-hydroxyethyl)-4-(2-hydroxyphenyl)-5-pentylpyridine]",0.045
2,"CCCCCc1c(C(C)=O)nc(C(C)C)c(CO)c1-c1ccc(F)cc1 [Example 218, 2-Acetyl-3-pentyl-4-(4-fluorophenyl)-5-hydroxymethyl-6-isopropylpyridine]",6.5

# System: rat liver membrane
# Test: not given
# Conditions: Collins et al. 1992; cited from earlier work
row,Structure (SMILES),inhibit glucagon binding
1,"CN(C)CCCN(C)c1nc2cc(Cl)c(Cl)cc2nc1/C=C/c1ccccc1 [CP-99,711]",micromolar concentrations

# System: rat liver membrane
# Test: not given
# Conditions: Collins et al. 1992; cited from earlier work
# Remark: another data set of the same source
row,Structure (SMILES),inhibit glucagon action
1,"CN(C)CCCN(C)c1nc2cc(Cl)c(Cl)cc2nc1/C=C/c1ccccc1 [CP-99,711]",micromolar concentrations
